Experimental data from paper PMC2843552 (Cancer research, 2010).

Experiments:
[1] = test system: MDA-MB-231 cells; experiment: Laminin-based cell invasion assay; conditions: 1 µM, 24 hours
[2] = test system: STAT3 transcriptional activity in MDA-MB-231 cells; experiment: STAT3-dependent transcriptional luciferase assay; conditions: 24 hours of treatment
[3] = test system: BdsMC bladder cells; experiment: Apoptosis in normal cells; conditions: normal cell line
[4] = test system: JAK2; experiment: HTScan JAK2 Kinase Assay; format: biochemical, human; conditions: 5 µM; over a DMSO control; P<0.05
[5] = test system: STAT3 DNA-binding activity in MDA-MB-231 cells; experiment: STAT3 DNA-binding activity in nuclear extracts; conditions: 24 hours treatment
[6] = test system: HPDE cells; experiment: Western blot of cleaved caspase-3 in normal cells; conditions: concentrations as high as 10 µM; normal pancreatic cells
[7] = test system: MDA-MB-231 cells; experiment: Soft agar colony formation assay; conditions: MDA-MB-231, soft agar, two weeks
[8] = test system: HMEC cells; experiment: Western blot of cleaved caspase-3 in normal cells; conditions: concentrations as high as 10 µM; normal breast cells
[9] = test system: P-STAT3 in MDA-MB-231 breast cancer cells; experiment: Western blot of P-STAT3; conditions: 2.5 and 5 µM, 24 hours
[10] = test system: P-STAT3 in PANC-1 pancreatic cancer cells; experiment: Western blot of P-STAT3; conditions: 2.5 and 5 µM, 24 hours
[11] = test system: MDA-MB-231 breast cancer cell line; experiment: Combinatorial effect with doxorubicin on cell viability; conditions: 100–400 nM doxorubicin with 5000 nM compound; p < 0.05 over either agent alone
[12] = test system: WI-38 lung cells; experiment: Apoptosis in normal cells; conditions: normal cell line
[13] = test system: STAT3 DNA-binding activity in PANC-1 cells; experiment: STAT3 DNA-binding activity in nuclear extracts; conditions: 24 hours treatment
[14] = test system: STAT1 DNA-binding activity in MDA-MB-231 cells; experiment: STAT1 DNA-binding activity in nuclear extracts; conditions: 24 hours treatment

Row | Structure (SMILES) | invasive capacity [1] | luciferase activity [2] | apoptosis [3] | reduction in JAK2 kinase activity [4] | STAT3 DNA-binding activity [5] | caspase-3 cleavage [6] | reduction of overall colony numbers over that of curcumin [7] | caspase-3 cleavage [8] | levels of P-STAT3 [9] | levels of P-STAT3 [10] | combination effect with doxorubicin on cell viability [11] | apoptosis [12] | STAT3 DNA-binding activity [13] | STAT1 DNA-binding activity [14]
1 | COc1cc(/C=C/C(=O)CC(=O)/C=C/c2ccc(O)c(OC)c2)ccc1O [curcumin, reference compound] | comparatively minimal impact | – | – | – | – | – | – | – | – | – | – | – | – | –
2 | COc1ccc(/C=C/C(=O)C(C)(C)C(=O)/C=C/c2ccc(OC)c(OC)c2)cc1OC [FLLL31] | substantially reduced | reduced luciferase activity in a dose-dependent fashion | no evidence of apoptosis | approximately 60% | dropped sharply | unable to induce caspase-3 cleavage | approximately 40% | unable to induce caspase-3 cleavage | effectively reduced | effectively reduced | synergistic | no evidence of apoptosis | dropped sharply | slightly enhanced
